Measured values taken from patent EP4786487A1, “PEPTIDE” (Peptidream Inc, priority 2023, dated 2025).
Like-named read-outs stand apart in the source and are kept apart here. Starred links: 1 amine or outer side, 2 acyl side, 3 side chain; linkers in the order of their positions; H or OH if unused. Positions of bridges follow the written chain, without caps; N, C: chain ends. Non-standard residues stand in square brackets, D forms with d. Residues, ends and D or L forms follow the SMILES beside them. Groups on a side chain read outwards from the residue. *: point of attachment. Phe(3-OCH2COOH) = N[C@@H](Cc1cccc(OCC(=O)O)c1)C(=O)O; Piperidine(4-CH2CH2CONH2) = NC(=O)CCC1CCN(*)CC1; Trp(6-OH) = N[C@@H](Cc1c[nH]c2cc(O)ccc12)C(=O)O; Phe(4-COOH) = N[C@@H](Cc1ccc(C(=O)O)cc1)C(=O)O; Trp(6-aza) = N[C@@H](Cc1c[nH]c2cnccc12)C(=O)O; Trp(7-aza) = N[C@@H](Cc1c[nH]c2ncccc12)C(=O)O; Piperazinyl(4-CH2COOH) = O=C(O)CN1CCN(*)CC1; Piperidinyl(4-CH2COOH) = O=C(O)CC1CCN(*)CC1; Bip = N[C@@H](Cc1ccc(-c2ccccc2)cc1)C(=O)O; Gly(decyl) = CCCCCCCCCC[C@H](N)C(=O)O; Gly(N(CH2)3COOH) = O=C(O)CCCNCC(=O)O; X1 = CCCCCCC[C@H](N[*:1])C(=O)[*:2]; NMeCha = CN[C@@H](CC1CCCCC1)C(=O)O; NMeF = CN[C@@H](Cc1ccccc1)C(=O)O; 3Pal = N[C@@H](Cc1cccnc1)C(=O)O; NMeE = CN[C@@H](CCC(=O)O)C(=O)O; Cha = N[C@@H](CC1CCCCC1)C(=O)O; Carboxymethyl = O=C(O)C*; NMeA = CN[C@@H](C)C(=O)O; CO = O=C([*:1])[*:2]; NEtG = CCNCC(=O)O; Sar = CNCC(=O)O

Tests used:
Format in all cases: cell-based
GDF-11 = target: T1, GDF-11 (Homo sapiens, UniProt O95390); experiment: Reporter gene assay for myostatin signaling in HepG2 cell line, Evaluation Procedure (1), GDF-11 inhibition; settings: read-out: IC50 (Luciferase) GDF-11 HepG2
T1 construct: purchased R&D systems 1958-GD-G8/CF
T1 sequence (O95390 299-407): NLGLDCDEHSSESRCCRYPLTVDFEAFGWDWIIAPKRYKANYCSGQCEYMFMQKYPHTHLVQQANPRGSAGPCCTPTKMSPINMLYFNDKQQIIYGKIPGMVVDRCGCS
Procedure, shortened: (§1)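 IC50 derived from One-Glo luciferase luminescence after 20–24 h at 37 °C. Peptides titrated 4-fold at 0.006–100 nmol/L against myostatin or 0.12–2000 nmol/L against GDF-11 in HepG2 cells carrying a transfected CAGA12-luciferase reporter, kept in 0.1% BSA EMEM.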

Myostatin [1] = target: T2, Myostatin (Homo sapiens, UniProt O14793); experiment: Reporter gene assay for myostatin signaling in HepG2 cell line, Evaluation Procedure (1), myostatin inhibition; settings: read-out: IC50 (Luciferase) Myostatin HepG2
T2 construct: active myostatin (also called mature myostatin) is a homodimer consisting of two C-terminal growth factor domains; purchased R&D systems 788-G8/CF
T2 sequence (O14793 267-375): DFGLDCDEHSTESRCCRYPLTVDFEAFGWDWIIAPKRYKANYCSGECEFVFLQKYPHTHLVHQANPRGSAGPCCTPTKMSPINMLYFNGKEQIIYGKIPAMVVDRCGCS
Procedure, shortened: as §1

Myostatin [2] = experiment: as above; settings: GDF-11 IC50 versus Myostatin IC50
Procedure, shortened: as §1

SMILES | IC50 (GDF-11; Method A: GDF-11 10 ng/mL) [nM] | IC50 (Myostatin [1]; Method A: Myostatin 10 ng/mL) [nM] | Selectivity (Myostatin [2]; Method A) | further results
CCCCCCCCCC[C@@H]1NC(=O)[C@H](Cc2ccccc2)N(C)C(=O)[C@H](CCCNC(=N)N)NC(=O)[C@H](Cc2ccc(C(=O)O)cc2)NC(=O)[C@H](Cc2cccc(OCC(=O)O)c2)NC(=O)[C@H]2CCCN2C(=O)[C@H]([C@@H](C)CC)NC(=O)[C@H](Cc2ccccc2)N(C)C(=O)[C@H](Cc2ccc(O)cc2)NC(=O)[C@H](Cc2c[nH]c3cnccc23)NC(=O)[C@H](C)NC(=O)[C@H](C)NC(=O)CSC[C@H](C(=O)N2CCC(CC(=O)O)CC2)NC(=O)[C@H](Cc2ccccc2)N(C)C(=O)[C@H](CCC(=O)O)N(C)C1=O [Myostatin_99_v338] ({CH2CO}-AA[Trp(6-aza)]Y[NMeF]I[dP][Phe(3-OCH2COOH)][Phe(4-COOH)]R[NMeF][Gly(decyl)][NMeE][NMeF][dC]-{Piperidinyl(4-CH2COOH)}; thioether N-15) | – | – | – | IC50 (GDF-11; Method B: GDF-11 1 ng/mL): 114 nM; IC50 (Myostatin [1]; Method B: Myostatin 1 ng/mL): 0.38 nM; Selectivity (Myostatin [2]; Method B): 299.8
CC[C@H](C)[C@@H]1NC(=O)[C@H](Cc2ccccc2)N(C)C(=O)[C@H](Cc2ccc(O)cc2)NC(=O)[C@H](Cc2c[nH]c3ccccc23)NC(=O)[C@H](C)NC(=O)CN(CCCC(=O)O)C(=O)CSC[C@H](C(=O)O)NC(=O)[C@H](Cc2ccccc2)N(C)C(=O)[C@H](C)N(C)C(=O)[C@H](CC(C)C)NC(=O)[C@H](Cc2ccccc2)N(C)C(=O)[C@H](CCCNC(=N)N)NC(=O)[C@H](Cc2ccc(C(=O)O)cc2)NC(=O)[C@H](Cc2cccc(OCC(=O)O)c2)NC(=O)[C@H](C)N(C)C1=O [Myostatin_99_v144] ({CH2CO}-[Gly(N(CH2)3COOH)]AWY[NMeF]I[NMeA][Phe(3-OCH2COOH)][Phe(4-COOH)]R[NMeF]L[NMeA][NMeF][dC]-OH; thioether N-15) | 2760 | 16.3 | 169 | –
CC[C@H](C)[C@@H]1NC(=O)[C@H](Cc2ccccc2)N(C)C(=O)[C@H](Cc2ccc(O)cc2)NC(=O)[C@H](Cc2c[nH]c3ccccc23)NC(=O)[C@H](C)NC(=O)CN(CCCC(=O)O)C(=O)CSC[C@H](C(=O)O)NC(=O)[C@H](Cc2ccccc2)N(C)C(=O)[C@H](C)N(C)C(=O)[C@H](CC(C)C)NC(=O)[C@H](Cc2ccccc2)N(C)C(=O)[C@H](CCCNC(=N)N)NC(=O)[C@H](Cc2ccc(OCC(=O)O)cc2)NC(=O)[C@H](Cc2cccc(OCC(=O)O)c2)NC(=O)[C@H](C)N(C)C1=O [Myostatin_99_v124] ({CH2CO}-[Gly(N(CH2)3COOH)]AWY[NMeF]I[NMeA][Phe(3-OCH2COOH)]Y(Carboxymethyl)R[NMeF]L[NMeA][NMeF][dC]-OH; thioether N-15) | 2270 | 17.1 | 133 | –
CCCCCCCCCC[C@@H]1NC(=O)[C@H](Cc2ccccc2)N(C)C(=O)[C@H](CCCNC(=N)N)NC(=O)[C@H](Cc2ccc(C(=O)O)cc2)NC(=O)[C@H](Cc2cccc(OCC(=O)O)c2)NC(=O)CN(CC)C(=O)[C@H]([C@@H](C)CC)NC(=O)[C@H](Cc2ccccc2)N(C)C(=O)[C@H](Cc2ccc(O)cc2)NC(=O)[C@H](Cc2c[nH]c3cc(O)ccc23)NC(=O)[C@H](C)NC(=O)[C@H](C)NC(=O)CSC[C@H](C(=O)N2CCC(CCC(N)=O)CC2)NC(=O)[C@H](Cc2ccccc2)N(C)C(=O)[C@H](CCC(=O)O)N(C)C1=O [Myostatin_99_v383] ({CH2CO}-AA[Trp(6-OH)]Y[NMeF]I[NEtG][Phe(3-OCH2COOH)][Phe(4-COOH)]R[NMeF][Gly(decyl)][NMeE][NMeF][dC]-{Piperidine(4-CH2CH2CONH2)}; thioether N-15) | – | – | – | IC50 (GDF-11; Method D: GDF-11 1.5 ng/mL): 40.5 nM; IC50 (Myostatin [1]; Method D: Myostatin 1.5 ng/mL): 0.18 nM; Selectivity (Myostatin [2]; Method D): 220.797
CC[C@H](C)[C@@H]1NC(=O)[C@H](Cc2ccccc2)N(C)C(=O)[C@H](Cc2ccc(O)cc2)NC(=O)[C@H](Cc2ccc(-c3ccccc3)cc2)NC(=O)[C@H](C)NC(=O)CN(CCCC(=O)O)C(=O)CSC[C@H](C(=O)O)NC(=O)[C@H](Cc2ccccc2)N(C)C(=O)[C@H](C)N(C)C(=O)[C@H](CC(C)C)NC(=O)[C@H](Cc2ccccc2)N(C)C(=O)[C@H](CCCNC(=N)N)NC(=O)[C@H](Cc2ccc(C(=O)O)cc2)NC(=O)[C@H](Cc2cccc(OCC(=O)O)c2)NC(=O)CN(C)C1=O [Myostatin_99_v184] ({CH2CO}-[Gly(N(CH2)3COOH)]A[Bip]Y[NMeF]I[Sar][Phe(3-OCH2COOH)][Phe(4-COOH)]R[NMeF]L[NMeA][NMeF][dC]-OH; thioether N-15) | 1830 | 14.2 | 129 | –
CCCCCCC[C@@H]1NC(=O)[C@H](CC2CCCCC2)NC(=O)[C@H](CCCNC(=N)N)NC(=O)[C@H](Cc2ccc(C(=O)O)cc2)NC(=O)[C@H](CCCCNC(=O)N2CCN(CC(=O)O)CC2)NC(=O)[C@H]2CCCN2C(=O)[C@H]([C@@H](C)CC)NC(=O)[C@H](CC2CCCCC2)N(C)C(=O)[C@H](Cc2ccc(O)cc2)NC(=O)[C@H](Cc2c[nH]c3ccccc23)NC(=O)[C@@H](CCC(=O)O)NC(=O)[C@H](C)NC(=O)CSC[C@H](C(=O)N2CCN(CC(=O)O)CC2)NC(=O)[C@H](Cc2ccccc2)N(C)C(=O)[C@H](C)N(C)C1=O [Myostatin_99_v244] ({CH2CO}-A[dE]WY[NMeCha]I[dP]K([CO-Piperazinyl(4-CH2COOH)])[Phe(4-COOH)]R[Cha][X1][NMeA][NMeF][dC]-{Piperazinyl(4-CH2COOH)}; thioether N-15) | 13600 | 17.7 | 771 | –
CC[C@H](C)[C@@H]1NC(=O)[C@H](Cc2ccccc2)N(C)C(=O)[C@H](Cc2ccc(O)cc2)NC(=O)[C@H](Cc2ccc(-c3ccccc3)cc2)NC(=O)[C@H](C)NC(=O)CN(CCCC(=O)O)C(=O)CSC[C@H](C(=O)O)NC(=O)[C@H](Cc2ccccc2)N(C)C(=O)[C@H](C)N(C)C(=O)[C@H](CC(C)C)NC(=O)[C@H](Cc2ccccc2)N(C)C(=O)[C@H](CCCNC(=N)N)NC(=O)[C@H](Cc2ccc(C(=O)O)cc2)NC(=O)[C@H](Cc2ccc(O)cc2)NC(=O)[C@H](C)N(C)C1=O [Myostatin_99_v182] ({CH2CO}-[Gly(N(CH2)3COOH)]A[Bip]Y[NMeF]I[NMeA]Y[Phe(4-COOH)]R[NMeF]L[NMeA][NMeF][dC]-OH; thioether N-15) | 1360 | 53 | 26 | –
CC[C@H](C)[C@@H]1NC(=O)[C@H](Cc2ccccc2)N(C)C(=O)[C@H](Cc2ccc(O)cc2)NC(=O)[C@H](Cc2c[nH]c3ncccc23)NC(=O)[C@H](C)NC(=O)CN(CCCC(=O)O)C(=O)CSC[C@H](C(=O)O)NC(=O)[C@H](Cc2ccccc2)N(C)C(=O)[C@H](C)N(C)C(=O)[C@H](CC(C)C)NC(=O)[C@H](Cc2ccccc2)N(C)C(=O)[C@H](CCCNC(=N)N)NC(=O)[C@H](Cc2ccc(C(=O)O)cc2)NC(=O)[C@H](Cc2ccccc2)NC(=O)CN(C)C1=O [Myostatin_99_Variant_20-OH] ({CH2CO}-[Gly(N(CH2)3COOH)]A[Trp(7-aza)]Y[NMeF]I[Sar]F[Phe(4-COOH)]R[NMeF]L[NMeA][NMeF][dC]-OH; thioether N-15) | 2010 | 44.8 | 45 | –
CC[C@H](C)[C@@H]1NC(=O)[C@H](Cc2ccccc2)N(C)C(=O)[C@H](Cc2ccc(O)cc2)NC(=O)[C@H](Cc2c[nH]c3ncccc23)NC(=O)[C@H](C)NC(=O)CN(CCCC(=O)O)C(=O)CSC[C@H](C(=O)O)NC(=O)[C@H](Cc2ccccc2)N(C)C(=O)[C@H](C)N(C)C(=O)[C@H](CC(C)C)NC(=O)[C@H](Cc2ccccc2)N(C)C(=O)[C@H](CCCNC(=N)N)NC(=O)[C@H](Cc2cccnc2)NC(=O)[C@H](Cc2ccccc2)NC(=O)CN(C)C1=O [Myostatin_99_v41] ({CH2CO}-[Gly(N(CH2)3COOH)]A[Trp(7-aza)]Y[NMeF]I[Sar]F[3Pal]R[NMeF]L[NMeA][NMeF][dC]-OH; thioether N-15) | 1630 | 63.7 | 26 | –
CC[C@H](C)[C@@H]1NC(=O)[C@H](Cc2ccccc2)N(C)C(=O)[C@H](Cc2ccc(O)cc2)NC(=O)[C@H](Cc2ccc(-c3ccccc3)cc2)NC(=O)[C@H](C)NC(=O)CN(CCCC(=O)O)C(=O)CSC[C@H](C(=O)O)NC(=O)[C@H](Cc2ccccc2)N(C)C(=O)[C@H](C)N(C)C(=O)[C@H](CC(C)C)NC(=O)[C@H](Cc2ccccc2)N(C)C(=O)[C@H](CCCNC(=N)N)NC(=O)[C@H](Cc2ccc(OCC(=O)O)cc2)NC(=O)[C@H](Cc2cccc(OCC(=O)O)c2)NC(=O)[C@H](C)N(C)C1=O [Myostatin_99_v85] ({CH2CO}-[Gly(N(CH2)3COOH)]A[Bip]Y[NMeF]I[NMeA][Phe(3-OCH2COOH)]Y(Carboxymethyl)R[NMeF]L[NMeA][NMeF][dC]-OH; thioether N-15) | 3370 | 13.5 | 250 | –
